Source: patent publication US20090239896A1, “AZAINDOLE COMPOUNDS AND USE THEREOF AS PHOSPHOLIPASE-A2 INHIBITORS” (priority 2005, published 2009)

Assays:
[1] = pharmokinetic study of ILY-4001, IV and oral (Example 6C); assay type: in vivo, mice; details: 30 mg/kg oral
Description: This example evaluated the bioavailability of ILY-4001 [2-(3-(2-amino-2-oxoacetyl)-1-(biphenyl-2-ylmethyl)-2-methyl-1H-indol-4-yloxy)acetic acid], alternatively referred to herein as methyl indoxam. Specifically, a pharmokinetic study was conducted to determine the fraction of unchanged ILY-4001 in systemic circulation following administration.
Bioavailability was calculated as a ratio of AUC-oral/AUC-intravenous (IV). To determine this ratio, a first set of subject animals were given a measured intravenous (IV) dose of ILY-4001, followed by a determination of ILY-4001 levels in the blood at various time points after administration (e.g., 5 minutes through 24 hours). Another second set of animals was similarly dosed using oral administration, with blood levels of ILY-4001 determined at various time points after administration (e.g., 30 minutes through 24 hours). The level of ILY-4001 in systemic circulation were determined by generally accepted methods (for example as described in Evans, G., A Handbook of Bioanalysis and Drug Metabolism. Boca Raton, CRC Press (2004)). Specifically, […]/mass spectrometry/mass spectrometry (LC/MS/MS) analytical methods were used to quantitate plasma concentrations of ILY-4001 after oral and intravenous administration. Pharmacokinetic parameters that were measured include Cmax, AUC, tmax, t1/2, and F (bioavailability). […]

stability at low pH = assay type: physicochemical; details: predicted to survive passage through the stomach
mouse PLA2 IB enzyme = mouse PLA2 IB enzyme (Mus musculus, UniProt Q9Z0Y2); details: pyrene substrate release from vesicles; Singer, Ghomashchi et al. 2002; read-out: IC50 value versus the mouse PLA2 IB enzyme; cited from earlier work
Sequence of mouse PLA2 IB enzyme (Q9Z0Y2 23-146): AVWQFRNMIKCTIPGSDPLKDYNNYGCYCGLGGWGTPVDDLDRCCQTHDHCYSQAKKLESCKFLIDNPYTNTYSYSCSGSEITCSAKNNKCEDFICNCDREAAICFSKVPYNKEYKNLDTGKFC

Caco-2 monolayers = test: in-vitro Caco-2 permeability study (Example 6B); assay type: in vitro ADME, human
Description: The culture medium was refreshed every 48 hours.
Papp=(dQ/dt)X(1/C0)X(1/A)

[2] = system: C57BL/6 wild-type mice on high fat/high sucrose diabetogenic diet; test: in-vivo evaluation in mice on high fat/high sucrose diabetogenic diet (Example 5); design: species or system mouse; details: for fasting glucose levels: low dose (25 mg/kg/day)
Description: Briefly, four groups were set up, each having six mice. Three of the groups included six wild-type PLA2 (+/+) mice in each group (eighteen mice total), and one of the groups included six genetically deficient PLA2 (−/−) mice. One of the wild-type groups was used as a wild-type control group, and was not treated with ILY-4001. The other two wild-type groups were treated with ILY-4001—one group at a lower dose (indicated as “L” in Table 1) of 25 mg/kg/day, and the other at a higher dose (indicated as “H” in Table 1) of 90 mg/kg/day. The group comprising the PLA2 (−/−) mice was used as a positive control group.
The experimental protocol used in this study was as follows. The four groups of mice, including wild type and isogenic PLA2 (−/−) C57BL/J mice were acclimated for three days on a low fat/low carbohydrate diet. After the three day acclimation phase, the animals were ? and serum samples taken to establish baseline plasma cholesterol, triglyceride, and glucose levels, along with baseline body weight. The mice in each of the treatment groups were then fed a high fat/high sucrose diabetogenic diet (Research Diets D12331). 1000 g of the high fat/high sucrose D12331 diet was composed of casein (228 g), DL-methionine (2 g), maltodextrin 10 (170 g), sucrose (175 g), soybean oil (25 g), hydrogenated coconut oil (333.5 g), mineral mix S10001 (40 g), sodium bicarbonate (10.5 g), potassium citrate (4 g), vitamin mix V10001 (10 g), and choline bitartrate (2 g). This diet was supplemented with ILY-4001 treatments such that the average daily dose of the compound ingested by a 25 g mouse was: 0 mg/kg/day (wild-type control group and PLA2 (−/−) control group); 25 mg/kg/day (low-dose wild-type treatment group), or 90 mg/kg/day (high-dose wild-type treatment group). The animals were maintained on the high fat/high sucrose diet, with the designated ILY-4001 supplementation, for a period of ten weeks.
Body weight measurements were taken for all animals in all treatment and control groups at the beginning of the treatment period and at 4 weeks and 10 weeks after initiation of the study. (See Example 5A). Blood draws were also taken at the beginning of the treatment period (baseline) and at 4 weeks and 10 weeks after initiation of the study, in order to determine fasting glucose (See Example 5B). Cholesterol and triglyceride levels were determined from blood draws taken at the beginning of the treatment (baseline) and at ten weeks. (See Example 5C).
In the study generally described above in Example 5, body weight measurements were taken for all animals in all treatment and control groups at the beginning of the treatment period and at 4 weeks and 10 weeks after initiation of the study.
In the study generally described above in Example 5, blood draws were taken at the beginning of the treatment period (baseline) and at 4 weeks and 10 weeks after initiation of the study, in order to determine fasting glucose.
In the study generally described above in Example 5, blood draws were taken at the beginning of the treatment period (baseline) and at 10 weeks after initiation of the study, in order to determine cholesterol and triglyceride levels.

human PLA2 IB enzyme = human PLA2 IB enzyme (Homo sapiens, UniProt P04054); details: pyrene substrate release from vesicles; Singer, Ghomashchi et al. 2002; read-out: IC50 value versus the human PLA2 IB enzyme; cited from earlier work
Sequence of human PLA2 IB enzyme (P04054 23-148): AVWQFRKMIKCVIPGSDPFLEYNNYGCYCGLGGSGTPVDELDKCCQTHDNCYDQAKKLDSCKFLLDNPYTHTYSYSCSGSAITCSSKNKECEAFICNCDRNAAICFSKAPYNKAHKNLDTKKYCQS

[3] = low and high doses (25 and 90 mg/kg/day), 10 weeks

Cc1c(C(=O)C(N)=O)c2c(OCC(=O)O)cccc2n1Cc1ccccc1-c1ccccc1 [ILY-4001, 2-(3-(2-amino-2-oxoacetyl)-1-(biphenyl-2-ylmethyl)-2-methyl-1H-indol-4-yloxy)acetic acid]
level of non-absorption from the GI tract into systemic circulation [1]: ~72%
stability at low pH (stability at low pH): stable
IC50 (mouse PLA2 IB enzyme): ~150 nM
absorption from the GI lumen (Caco-2 monolayers; based on Caco-2 assays and pharmokinetic studies): relatively low
body weight gain compared to wild-type control group ([2]; 25 mg/kg/d and 90 mg/kg/d in diet, week 4 and week 10): significantly reduced
plasma levels of cholesterol [2, 3]: substantially reduced
plasma levels of triglycerides [2, 3]: substantially reduced
fasting glucose levels ([2]; week four): moderately beneficial effect
fasting glucose levels ([2]; week ten): a beneficial effect was not observed
IC50 (human PLA2 IB enzyme): ~200 nM

Lucifer Yellow
apparent permeability (Caco-2 monolayers; Caco-2): around 2.82×10^−7+/−0.37×10^−7 cm/s
